Values joined by “and” are separate entries in the source; they are usually repeats but may differ in a detail not shown here. Equal entries are not always repeated.
Experiments:
[1] = biological target: T1, androgen receptor LBD (Panvera) (Rattus norvegicus, UniProt P15207); assay: Androgen Receptor Filtration Binding Assay (PANVERA); settings: Androgen Receptor Binding (Panvera); 0.5 nM [3H] R1881 tracer
T1 construct: 5 pmol androgen receptor LBD (Panvera); purchased Panvera
T1 sequence (P15207 651-882 limits assumed): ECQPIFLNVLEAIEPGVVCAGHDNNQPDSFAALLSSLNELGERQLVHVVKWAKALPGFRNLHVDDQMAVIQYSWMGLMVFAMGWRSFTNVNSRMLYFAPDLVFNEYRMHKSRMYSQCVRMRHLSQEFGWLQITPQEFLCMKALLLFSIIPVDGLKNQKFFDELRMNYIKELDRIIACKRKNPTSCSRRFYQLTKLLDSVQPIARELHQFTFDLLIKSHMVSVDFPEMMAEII
Procedure: (§1) The assay was run on a 96 well plate with each well filled with a total reaction volume 150 μL, of a solution containing 5 pmol androgen receptor LBD (Panvera) or 30 μL of freshly prepared rat cytosol, 0.5 nM [^3H] […] (TED buffer contains 10 mM Tris.HCl pH 7.4, 1 mM sodium molybdate, 1.5 mM EDTA, 1 mM DTT and 10% (v/v) glycerol.)
(§2) On day one, the solution containing receptor, tracer and TED buffer was distributed into a 96 well plate. Diluted test compound or control vehicle was then added to individual wells and the plate incubated at 4° C. overnight.
(§3) On day two, to each well was then added 20 μL human γ-globulin (ICN 823102), prepared at 25 mg/ml in TE pH 8.0, and 55 μL 40% polyethylene glycol 8000 (JT Baker U222-08), prepared in TE pH 8.0. The plate was incubated at 4° C. for 60 minutes. During incubation, the harvester was rinsed with 10% PEG 8000, prepared in TE pH 8.0, and a GF/C Unifilter-96 was pre-wet with 10% PEG. The binding reaction was filtered, the retentate was washed three times with 10% PEG and dried under vacuum for a couple of minutes, then dried at 50° C. for 5 min and the plate was bottom sealed. Next, 25 μL of Microscint-20 (Packard) was added to the filter wells and the plate was top sealed. The plate wells were then counted on a TopCount (Packard).
Counts per well were measured and IC50s determined by linear regression.

[2] = biological target: T2, androgen receptor (rat ventral prostate cytosol) (Rattus norvegicus, UniProt P15207); assay: Androgen Receptor Binding Using Rat Ventral Prostate Cytosol; settings: rat cytosol; for inhibition at 1 µM / % Inhibition: concentration 1000 nM; for IC50: read-out: IC50
T2 construct: from tissue; host or cells: ventral prostate of castrated male Sprague Dawley or Wistar rats, cytosol
T2 sequence (P15207 1-902): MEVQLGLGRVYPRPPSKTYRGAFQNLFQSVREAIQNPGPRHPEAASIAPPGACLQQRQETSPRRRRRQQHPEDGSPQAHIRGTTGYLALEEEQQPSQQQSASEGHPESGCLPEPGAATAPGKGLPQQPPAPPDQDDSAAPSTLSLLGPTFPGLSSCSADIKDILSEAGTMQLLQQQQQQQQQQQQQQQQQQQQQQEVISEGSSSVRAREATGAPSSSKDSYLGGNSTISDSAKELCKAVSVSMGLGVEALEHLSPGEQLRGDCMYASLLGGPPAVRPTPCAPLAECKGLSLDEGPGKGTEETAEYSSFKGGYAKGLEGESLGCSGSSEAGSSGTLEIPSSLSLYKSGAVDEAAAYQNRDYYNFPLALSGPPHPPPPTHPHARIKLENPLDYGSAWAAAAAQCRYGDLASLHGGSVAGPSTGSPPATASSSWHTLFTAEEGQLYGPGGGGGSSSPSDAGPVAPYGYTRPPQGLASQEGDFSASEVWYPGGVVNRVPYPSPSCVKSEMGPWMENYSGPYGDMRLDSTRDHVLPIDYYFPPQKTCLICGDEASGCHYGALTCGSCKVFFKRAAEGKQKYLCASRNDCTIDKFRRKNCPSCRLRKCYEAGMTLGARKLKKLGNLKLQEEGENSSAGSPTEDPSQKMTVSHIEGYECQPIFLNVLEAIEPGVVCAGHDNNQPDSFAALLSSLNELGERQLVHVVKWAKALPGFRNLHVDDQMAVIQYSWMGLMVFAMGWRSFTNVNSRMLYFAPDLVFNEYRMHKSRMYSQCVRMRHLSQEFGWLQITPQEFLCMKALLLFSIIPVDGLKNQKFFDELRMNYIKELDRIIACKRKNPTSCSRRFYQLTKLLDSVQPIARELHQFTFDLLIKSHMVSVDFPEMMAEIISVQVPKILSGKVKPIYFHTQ
Procedure: as §1, §2, §3
Rat Prostate Cytosol Preparation:
Male Sprague Dawley or Wistar rats (Charles River, 200-300 g) were used for each preparation. The day before preparing the cytosol, the rats were castrated using standard surgical procedures.
The rats were euthanized by carbon dioxide asphyxiation. The rat prostates were quickly removed and placed on ice in pre-chilled, pre-weighed 50 mL plastic tubes. No more than five prostates were placed into one tube. The tubes were then weighed and the prostate tissue wet weights calculated.
To the chilled prostate tissue was then added […] of chilled homogenization buffer. The homogenization buffer was freshly prepared by mixing 10 mM Tris.HCl, pH 7.4, 1 mM sodium molybdate, 1.5 mM EDTA, 1 mM dithiothreitol, 10% (v/v) glycerol and 1% protease inhibitor cocktail (Sigma P 8340).
The prostate tissue was homogenized in a cold room using a pre-chilled Polytron PT3000 homogenizer (Brinkmann). Homogenization was performed at a speed setting of 20, three times for 10 sec bursts. The tubes containing the prostate tissue was kept on ice while homogenizing. The homogenate was allowed to rest on ice for 20 sec between bursts.
The homogenate was then placed into pre-chilled 3 mL polycarbonate ultracentrifuge tubes and centrifuged in the TLA-100 rotor of a TL-100 ultracentrifuge for 12 min at 100,000 rpm at 4° C. The resulting supernatant was stored in 1 mL aliquots at −80° C. until needed.
Binding to the androgen receptor was determined according to the protocol described in Example 86 using the above prepared rat cytosol.
% Inhibition was determined by testing dilutions of the test compound (usually duplicates of 10 μM) in the binding assay. Counts per well were measured and percents of inhibition determined. […] Counts per well were measured and IC50s determined by linear regression.

Row | Compound | IC50 [1] | inhibition at 1 µM [2] [%] | IC50 [2] [nM] | % Inhibition [2] [%]
1 | CS(=O)(=O)n1c(C2(O)CCNCC2)cc2cc(Cl)c(C(F)(F)F)cc21 [Compound #23] | 54000 nM | -1.5 | 6000 | 
2 | CC(O)(Sc1ccccc1)c1cc2cc([N+](=O)[O-])c(C(F)(F)F)cc2[nH]1 (racemic) [compound 258] | 2450 nM |  |  | 35.4
3 | CS(=O)(=O)n1c(C2(O)CCN(C(=O)OCc3ccccc3)CC2)cc2cc(Cl)c(C(F)(F)F)cc21 [compound 19] | > 100000 nM | -55 |  | 
4 | CC(O)(COC(=O)c1ccc(Cl)cc1)c1cc2cc(Cl)c(C(F)(F)F)cc2[nH]1 (centres unmarked) [compound 62] | 325 nM | 69 |  | 
5 | CC(O)(Sc1ccc(Cl)c(Cl)c1)c1cc2cc([N+](=O)[O-])c(C(F)(F)F)cc2[nH]1 (racemic) [compound 254] | 1020 nM and 920 nM |  | 670 | 41
6 | CS(=O)(=O)n1c(C2(O)CCN(Cc3ccccc3)CC2)cc2cc(Cl)c(C(F)(F)F)cc21 [Compound #21] | > 10200 nM | -41.5 |  | 

Source: patent publication US8394971B2, “Indole derivatives as selective androgen receptor modulators (SARMS)” (Janssen Pharmaceutica N.V., priority 2004, dated 2013)
